Data set [1] concerns the target T1, human calcitonin receptor (hCTR2) (Homo sapiens, UniProt P30988).
T1 construct: expressed in transfected cells
T1 sequence (P30988 25-474): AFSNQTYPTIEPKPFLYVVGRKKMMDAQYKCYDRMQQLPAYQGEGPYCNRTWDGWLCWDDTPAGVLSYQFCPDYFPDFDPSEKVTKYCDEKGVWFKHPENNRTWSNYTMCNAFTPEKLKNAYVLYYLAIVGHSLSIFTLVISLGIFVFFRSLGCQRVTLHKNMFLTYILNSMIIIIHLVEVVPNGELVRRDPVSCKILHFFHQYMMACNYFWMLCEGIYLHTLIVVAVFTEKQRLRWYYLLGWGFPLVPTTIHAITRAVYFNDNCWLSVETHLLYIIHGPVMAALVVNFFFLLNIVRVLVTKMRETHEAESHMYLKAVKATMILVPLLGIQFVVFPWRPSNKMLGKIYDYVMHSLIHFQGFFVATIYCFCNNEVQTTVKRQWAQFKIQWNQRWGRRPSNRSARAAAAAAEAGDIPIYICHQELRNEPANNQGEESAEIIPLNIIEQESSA
As to the kind of experiment: hCTR2 assay: induction of cAMP (AlphaScreen cAMP Assay kit) in COS7 cells expressing hCTR2. It is filed as cell-based. Summed up:
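Stable hCTR2 clone in RAMP-naive COS7 cells; peptides titrated in Tyrode buffer (pH 7.4) with 100 µM IBMX, 0.1% casein, 15 min at 37° C. cAMP read by AlphaScreen after lysis; EC50 and efficacy relative to pramlintide from 4PL fit.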
(In general: Bead proximity is the source of the signal in Alpha formats.)

The target of data set [2] is T2, human amylin receptor 3 (hAMYR3) consisting of hCTR2 co-expressed with human Receptor Activity Modifying Protein 3 (hRAMP3) (Homo sapiens, UniProt O60896+P30988).
T2 construct: expressed in transfected cells
T2 sequence (P30988 25-474): T1 sequence (P30988 25-474)
T2 sequence (O60896 24-148 partner): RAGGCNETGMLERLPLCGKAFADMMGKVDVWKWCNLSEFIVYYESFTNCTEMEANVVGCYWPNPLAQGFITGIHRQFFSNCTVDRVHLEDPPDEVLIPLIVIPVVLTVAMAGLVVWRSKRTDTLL
As to the kind of experiment: hAMYR3 assay: induction of cAMP (AlphaScreen cAMP Assay kit) in COS7 cells expressing hAMYR3. It is filed as cell-based. Summed up:
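Stable COS7 clone co-expressing hCTR2 and hRAMP3, stimulated 15 min at 37° C with increasing peptide in Tyrode buffer pH 7.4 with 100 µM IBMX and 0.1% casein. cAMP measured by AlphaScreen after lysis; EC50 and % efficacy versus pramlintide from 4PL fit.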

The nature of data set [3]: Solubility assessment (turbidity absorbance at 325 nm). The class given is physicochemical. The conditions noted are these: stock 2 mg/ml diluted 1:1, ambient temperature (typically 25°C), n=1; for Solubility, Acetate buffer pH 4: 100 mM acetate buffer pH 4.0; for Solubility, Acetate buffer pH 5: 100 mM acetate buffer pH 5.0; for Solubility, Histidine buffer pH 6: 100 mM histidine buffer pH 6.0; for Solubility, Histidine buffer pH 7: 100 mM histidine buffer pH 7.0; for Solubility, Phosphate buffer pH 6: 100 mM phosphate buffer pH 6.0; for Solubility, Phosphate buffer pH 7: 100 mM phosphate buffer pH 7.0; for Solubility, Phosphate buffer pH 7.5: 100 mM phosphate buffer pH7.5. In a few lines: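 Peptide stock (2 mg/ml) in water acidified to pH 2.5 with HCl was diluted 1:1 into 100 mM acetate (pH 4.0, 5.0), histidine (pH 6.0, 7.0) or phosphate (pH 6.0, 7.0, 7.5) buffer. A280 and A325 were read at about 25°C, n=1. A325 ≤ 0.02 meant solubility ≥ 1 mg/ml.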

Data on three compounds can be found in patent publication EP3046573B1, “AMYLIN ANALOGUES” (Zealand Pharma A/S, priority 2013, dated 2015).

As a reminder, the EC50 is the concentration giving half of the maximal effect.

SMILES strings stand for the structures. Numbered stars: 1 amine (or outer) side, 2 acyl side, 3 side chain; on linkers, the order of the positions; unused ones are H or OH. Bridge positions count the residues as written; N and C are the ends. Square brackets hold non-standard residues; d marks the D form. Peptide text beside a SMILES is read from it. * marks the point of attachment. C20 diacid = O=C(O)CCCCCCCCCCCCCCCCCCC(=O)*; γGlu = O=C(O)[C@H](CCC(=O)[*:2])N[*:1]; NMeI = CC[C@H](C)[C@H](NC)C(=O)O; Sar = CNCC(=O)O

In the case of `CC[C@H](C)[C@@H](C(=O)N[C@@H](CC(C)C)C(=O)N[C@@H](CO)C(=O)N[C@@H](CO)C(=O)N[C@H](C(=O)N[C@@H](CC(N)=O)C(=O)N[C@H](C(=O)NCC(=O)N[C@@H](CO)C(=O)N[C@@H](CC(N)=O)C(=O)N[C@H](C(=O)N[C@H](C(N)=O)C(C)C)[C@@H](C)O)C(C)C)[C@@H](C)O)N(C)C(=O)[C@H](C)NC(=O)CN(C)C(=O)[C@H](Cc1ccccc1)NC(=O)[C@H](CC(N)=O)NC(=O)[C@H](CC(N)=O)NC(=O)[C@H](CO)NC(=O)[C@H](CO)NC(=O)[C@H](CCCNC(=N)N)NC(=O)[C@H](Cc1c[nH]cn1)NC(=O)[C@H](CC(C)C)NC(=O)[C@H](Cc1ccccc1)NC(=O)[C@H](CCC(=O)O)NC(=O)[C@H](C)NC(=O)[C@H](CC(C)C)NC(=O)[C@H](CCCNC(=N)N)NC(=O)[C@H](CCC(N)=O)NC(=O)[C@@H](NC(=O)[C@H](C)NC(=O)[C@@H]1CSSC[C@H](NC(=O)[C@H](CCCNC(=N)N)NC(=O)CC[C@H](NC(=O)CCCCCCCCCCCCCCCCCCC(=O)O)C(=O)O)C(=O)N[C@@H](CC(N)=O)C(=O)N[C@@H]([C@@H](C)O)C(=O)N[C@@H](C)C(=O)N[C@@H]([C@@H](C)O)C(=O)N1)[C@@H](C)O` [Compound 98, [19CD]-isoGlu-RC()NTATC()ATQRLAEFLHRSSNNF-Gly(Me)-A-Ile(Me)-LSSTNVGSNTV-NH2] ({C20 diacid-γGlu}-RCNTATCATQRLAEFLHRSSNNF[Sar]A[NMeI]LSSTNVGSNTV-NH2; disulfide 2-7), the EC50 in data set [1] was determined as 0.35 nM. For the same compound, the response in data set [2] was half-maximal at 1.7 nM (EC50). In data set [3], the “Solubility, Acetate buffer pH 4” value is listed as “SS (SS indicates solubility ≥ 1mg/ml)”; the “Solubility, Acetate buffer pH 5” value is recorded as “SS (SS indicates solubility ≥ 1mg/ml)”; the “Solubility, Histidine buffer pH 6” value was “SS (SS indicates solubility ≥ 1mg/ml)”; the “Solubility, Histidine buffer pH 7” value is on record as “SS (SS indicates solubility ≥ 1mg/ml)”. In data set [3], the “Solubility, Phosphate buffer pH 6” value was “II (II indicates solubility ≤ 1 mg/ml)”; the “Solubility, Phosphate buffer pH 7” value is on record as “SS (SS indicates solubility ≥ 1mg/ml)”; the “Solubility, Phosphate buffer pH 7.5” value is reported as “SS (SS indicates solubility ≥ 1mg/ml)”.
Consider `CC[C@H](C)[C@H](NC(=O)[C@@H](NC(=O)[C@H](CC(N)=O)NC(=O)[C@H](CO)NC(=O)CNC(=O)[C@@H](NC(=O)[C@H](CC(N)=O)NC(=O)[C@@H](NC(=O)[C@H](CO)NC(=O)[C@H](CO)NC(=O)[C@H](CC(C)C)NC(=O)[C@H]([C@@H](C)CC)N(C)C(=O)[C@H](C)NC(=O)CN(C)C(=O)[C@H](Cc1ccccc1)NC(=O)[C@H](CC(N)=O)NC(=O)[C@H](CC(N)=O)NC(=O)[C@H](CO)NC(=O)[C@H](CO)NC(=O)[C@H](CCCNC(=N)N)NC(=O)[C@H](Cc1c[nH]cn1)NC(=O)[C@H](CC(C)C)NC(=O)[C@H](Cc1ccccc1)NC(=O)[C@H](CCC(=O)O)NC(=O)[C@H](C)NC(=O)[C@H](CC(C)C)NC(=O)[C@H](CCCNC(=N)N)NC(=O)[C@H](CCC(N)=O)NC(=O)[C@@H](NC(=O)[C@H](C)NC(=O)[C@@H]1CSSC[C@H](NC(=O)[C@H](CCCNC(=N)N)NC(=O)CC[C@H](NC(=O)CCCCCCCCCCCCCCCCCCC(=O)O)C(=O)O)C(=O)N[C@@H](CC(N)=O)C(=O)N[C@@H]([C@@H](C)O)C(=O)N[C@@H](C)C(=O)N[C@@H]([C@@H](C)O)C(=O)N1)[C@@H](C)O)[C@@H](C)O)C(C)C)[C@@H](C)O)C(N)=O` [Compound 99, [19CD]-isoGlu-RC()NTATC()ATQRLAEFLHRSSNNF-Gly(Me)-A-Ile(Me)-LSSTNVGSNTI-NH2] ({C20 diacid-γGlu}-RCNTATCATQRLAEFLHRSSNNF[Sar]A[NMeI]LSSTNVGSNTI-NH2; disulfide 2-7), for which the EC50 in data set [1] came out at 0.27 nM. In data set [2], this compound yielded an EC50 of 2.2 nM. For the same compound, in data set [3], the “Solubility, Acetate buffer pH 4” value is recorded as “SS (SS indicates solubility ≥ 1mg/ml)”; the “Solubility, Acetate buffer pH 5” value was “SS (SS indicates solubility ≥ 1mg/ml)”; the “Solubility, Histidine buffer pH 6” value was “SS (SS indicates solubility ≥ 1mg/ml)”; the “Solubility, Histidine buffer pH 7” value is on record as “SS (SS indicates solubility ≥ 1mg/ml)”. Moreover, in data set [3], the “Solubility, Phosphate buffer pH 6” value is reported as “II (II indicates solubility ≤ 1 mg/ml)”; the “Solubility, Phosphate buffer pH 7” value is listed as “SS (SS indicates solubility ≥ 1mg/ml)”; the “Solubility, Phosphate buffer pH 7.5” value is reported as “SS (SS indicates solubility ≥ 1mg/ml)”.
Consider `CC[C@H](C)[C@@H](C(=O)N[C@@H](CC(C)C)C(=O)N[C@@H](CO)C(=O)N[C@@H](CO)C(=O)N[C@H](C(=O)N[C@@H](CC(N)=O)C(=O)N[C@H](C(=O)NCC(=O)N[C@@H](CO)C(=O)N[C@@H](CC(N)=O)C(=O)N[C@H](C(=O)N[C@@H](CC(C)C)C(N)=O)[C@@H](C)O)C(C)C)[C@@H](C)O)N(C)C(=O)[C@H](C)NC(=O)CN(C)C(=O)[C@H](Cc1ccccc1)NC(=O)[C@H](CC(N)=O)NC(=O)[C@H](CC(N)=O)NC(=O)[C@H](CO)NC(=O)[C@H](CO)NC(=O)[C@H](CCCNC(=N)N)NC(=O)[C@H](Cc1c[nH]cn1)NC(=O)[C@H](CC(C)C)NC(=O)[C@H](Cc1ccccc1)NC(=O)[C@H](CCC(=O)O)NC(=O)[C@H](C)NC(=O)[C@H](CC(C)C)NC(=O)[C@H](CCCNC(=N)N)NC(=O)[C@H](CCC(N)=O)NC(=O)[C@@H](NC(=O)[C@H](C)NC(=O)[C@@H]1CSSC[C@H](NC(=O)[C@H](CCCNC(=N)N)NC(=O)CC[C@H](NC(=O)CCCCCCCCCCCCCCCCCCC(=O)O)C(=O)O)C(=O)N[C@@H](CC(N)=O)C(=O)N[C@@H]([C@@H](C)O)C(=O)N[C@@H](C)C(=O)N[C@@H]([C@@H](C)O)C(=O)N1)[C@@H](C)O` [Compound 100, [19CD]-isoGlu-RC()NTATC()ATQRLAEFLHRSSNNF-Gly(Me)-A-Ile(Me)-LSSTNVGSNTL-NH2] ({C20 diacid-γGlu}-RCNTATCATQRLAEFLHRSSNNF[Sar]A[NMeI]LSSTNVGSNTL-NH2; disulfide 2-7), for which, in data set [1], the EC50 was found to be 0.37 nM. In data set [2], this compound came in with an EC50 of 6.3 nM. Moreover, in data set [3], the “Solubility, Acetate buffer pH 4” value is on record as “SS (SS indicates solubility ≥ 1mg/ml)”; the “Solubility, Acetate buffer pH 5” value is on record as “SS (SS indicates solubility ≥ 1mg/ml)”; the “Solubility, Histidine buffer pH 6” value is “SS (SS indicates solubility ≥ 1mg/ml)”; the “Solubility, Histidine buffer pH 7” value is given as “SS (SS indicates solubility ≥ 1mg/ml)”. Moreover, in data set [3], the “Solubility, Phosphate buffer pH 6” value was “II (II indicates solubility ≤ 1 mg/ml)”; the “Solubility, Phosphate buffer pH 7” value is recorded as “SS (SS indicates solubility ≥ 1mg/ml)”; the “Solubility, Phosphate buffer pH 7.5” value is “SS (SS indicates solubility ≥ 1mg/ml)”.
